Experimental data taken from patent US20090054304A1, “HETEROCYCLIC MODULATORS OF TGR5 FOR TREATMENT OF DISEASE” (KALYPSYS, INC., priority 2007, published 2009).

Biological target: T1, human TGR5 (Homo sapiens, UniProt Q8TDU6)
T1 construct: expressed in transfected cells
T1 sequence (Q8TDU6 1-330): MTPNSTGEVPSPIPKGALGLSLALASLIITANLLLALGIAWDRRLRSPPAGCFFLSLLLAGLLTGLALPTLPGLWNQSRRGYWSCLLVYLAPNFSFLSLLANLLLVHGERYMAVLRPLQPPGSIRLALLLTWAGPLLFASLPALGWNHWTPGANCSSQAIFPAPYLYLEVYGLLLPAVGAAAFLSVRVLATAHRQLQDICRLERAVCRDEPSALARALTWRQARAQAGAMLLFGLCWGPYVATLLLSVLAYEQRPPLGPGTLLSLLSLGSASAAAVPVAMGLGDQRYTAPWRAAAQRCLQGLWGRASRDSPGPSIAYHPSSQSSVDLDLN
Experiment: cAMP production assay in HEK293 cells stably expressing TGR5 (LANCE TR-FRET)
Type: cell-based
Conditions: 30 minutes stimulation, 1 mM IBMX, read-out: cAMP Production in 293-TGR5 Cells
Procedure: HEK293 cells stably expressing TGR5 (HEK293-TGR5) were established by stably transfecting HEK-293 cells with an expression vector (pcDNA 3.1, Invetrogen) inserted with human TGR5 cDNA using Fugene6 (Roche, Indianapolis, Ind.) according to conventional methods. Cells were grown in DMEM (invitrogen, Carlsbad, Calif.) supplemented with 10% FBS, 1% penicillin/streptomycin under geneticin selection. The presence of TGR5 transcripts in these cells was confirmed using branched DNA (bDNA, Genospectra, Inc., Fremont Calif.) following the manufacturer's protocol and using specific probes for human TGR5. cAMP production assay was performed in high throughput 1536 well format using LANCE cAMP detection kit (Perkin Elmer Inc., Boston, Mass.) according to the manufacturer's protocol. Briefly, HEK293-TGR5 cells were harvested using non-enzymatic cell dissociation buffer (Invitrogen, Carlsbad, Calif.) and suspended in DMEM supplemented with 0.1% FBS at a density of 800,000 cells/ml. Alexa antibody was added to the cell suspension, and 4 ul of the mixture was dispensed in white opaque tissue culture treated Greiner 1536 well plates (USA Scientific, Inc., Ocala, Fla.). After an overnight incubation at 37C in an atmosphere of 10% CO2 and 95% humidity, 1 ul of 5 mM IBMX (Sigma, St. Louis, Mo.) solution in DMEM was dispensed for a final concentration of 1 mM. Cells were then stimulated with test compounds for 30 minutes, after which time 5 ul of detection reagent was added and incubated for 1-7 hrs at room temperature. TR-FRET signal was detected using the Viewlux (Perkin Elmer Inc., Boston Mass.). EC50 values were determined using Graph Pad Prizm analysis (GraphPad Software, Inc). The EC50 values for a wide range of bile acids generated from this assay were in agreement with the values published in the scientific literature. […] The symbol (+) denotes an EC50 value of ≦10 μM while the symbol (−) denotes an EC50 value of >10 μM (see Table 1).

Compound	EC50
CC(C)n1ncc2cc(CNCc3ccc(C(F)(F)F)cc3)c(-c3ccsc3)nc21 [Example 1, 1-(1-isopropyl-6-(thiophen-3-yl)-1H-pyrazolo[3,4-b]pyridin-5-yl)-N-(4-(trifluoromethyl)benzyl)methanamine]	≤ 10 µM
CC(C)n1ncc2cc(CNCCc3ccc(Br)cc3)c(-c3ccsc3)nc21 [Example 2, 2-(4-Bromophenyl)-N-((1-isopropyl-6-(thiophen-3-yl)-1H-pyrazolo[3,4-b]pyridin-5-yl)methyl)ethanamine]	≤ 10 µM
Cc1nn(C)c2nc(-c3ccsc3)c(CNCCc3ccc(Br)cc3)cc12 [Example 3, 2-(4-bromophenyl)-N-((1,3-dimethyl-6-(thiophen-3-yl)-1H-pyrazolo[3,4-b]pyridin-5-yl)methyl)ethanamine]	≤ 10 µM
Cc1nn(C)c2nc(-c3ccsc3)c(CNCc3ccc(C(F)(F)F)cc3)cc12 [Example 4, 1-(1,3-dimethyl-6-(thiophen-3-yl)-1H-pyrazolo[3,4-b]pyridin-5-yl)-N-(4-(trifluoromethyl)benzyl)methanamine]	> 10 µM
Brc1ccc(CCNCc2cc3sccc3nc2-c2ccsc2)cc1 [Example 5, 2-(4-bromophenyl)-N-((5-(thiophen-3-yl)thieno[3,2-b]pyridin-6-yl)methyl)ethanamine]	≤ 10 µM
Brc1ccc(CCNCc2cc3ccsc3nc2-c2ccsc2)cc1 [Example 6, 2-(4-bromophenyl)-N-((6-(thiophen-3-yl)thieno[2,3-b]pyridin-5-yl)methyl)ethanamine]	≤ 10 µM
FC(F)(F)c1ccc(CNCc2cc3ccsc3nc2-c2ccsc2)cc1 [Example 7, 1-(6-(thiophen-3-yl)thieno[2,3-b]pyridin-5-yl)-N-(4-(trifluoromethyl)benzyl)methanamine]	≤ 10 µM
Brc1ccc(CCNCc2cc3ccncc3nc2-c2ccsc2)cc1 [Example 8, 2-(4-bromophenyl)-N-((2-(thiophen-3-yl)-1,7-naphthyridin-3-yl)methyl)ethanamine]	≤ 10 µM
COc1cc2nc(-c3ccsc3)c(CNCCc3ccc(Br)cc3)cc2cn1 [Example 9, 2-(4-bromophenyl)-N-((7-methoxy-2-(thiophen-3-yl)-1,6-naphthyridin-3-yl)methyl)ethanamine]	≤ 10 µM
O=c1cc2nc(-c3ccsc3)c(CNCCc3ccc(Br)cc3)cc2c[nH]1 [Example 10, 3-((4-bromophenethylamino)methyl)-2-(thiophen-3-yl)-1,6-naphthyridin-7(6H)-one]	> 10 µM
COc1ccc2cc(CNCCc3ccc(Br)cc3)c(-c3ccsc3)nc2n1 [Example 11, 2-(4-bromophenyl)-N-((7-methoxy-2-(thiophen-3-yl)-1,8-naphthyridin-3-yl)methyl)ethanamine]	≤ 10 µM
O=c1ccc2cc(CNCCc3ccc(Br)cc3)c(-c3ccsc3)nc2[nH]1 [Example 12, 6-((4-bromophenethylamino)methyl)-7-(thiophen-3-yl)-1,8-naphthyridin-2(1H)-one]	≤ 10 µM
